Reference: paper PMC11267363, “Supramolecular Nanofibers Ameliorate Bleomycin‐Induced Pulmonary Fibrosis by Restoring Autophagy” (Advanced Science, 2024)
Ends that are not written are not given here.

Legend:
[1] = biological target: bovine serum albumin (BSA) (Bos taurus, UniProt P02769); assay: Microscale thermophoresis (MST) binding to BSA (negative control protein); details: BSA as negative control
Description: To determine the effects of the self‐assembly factor “Ac‐GFFY” on the secondary structure of the A2 peptide fragment, Circular dichroism (CD) and Fourier transform infrared (FTIR) measurements were performed. […] We subsequently assessed the binding affinity between Ac‐GFFY‐A2 or A2 peptides to the human TRB3 protein or bovine serum albumin (BSA) using microscale thermophoresis (MST) assay, with BSA serving as the control group. […] Therefore, we labeled the peptide with the fluorescence group 7‐nitro‐1,2,3‐benzoxadiazole (NBD) to determine the cellular uptake via flow cytometer. The NBD‐labeled peptide was incubated with both of normal and activated MRC‐5 cells for 4 h, respectively. […] Collectively, under the action of supramolecular self‐assembly, the peptide assemblies with stable secondary conformation can not only be effectively absorbed by MRC‐5 cells but also have the potential to interfere with TRB3/p62 PPIs.
HR‐MS (Varian QFT‐ESI) was used to characterize the molecular weight of compounds. TEM (JEM100CXII) was performed at the Tecnai G2 F20 system, operating at 100 kV. Circular dichroism (CD) spectrum was obtained by a BioLogic (MOS‐450) system. Dynamic light scattering was measured by a ZETAPALS/BI‐200SM (BROOKHAVEN) system. Confocal laser scanning microscopy (CLSM) was measured by Leica TCS SP‐5. Flow cytometry (BD, FACS) was used to detect the cellular uptake. […]

TRB3/p62 PPIs = biological target: T1, TRB3/p62 PPIs (Homo sapiens, UniProt Q96RU7); assay: Co-immunoprecipitation and CLSM co-localization of TRB3/p62 in activated MRC-5 cells; assay type: cell-based; details: TGF-β1 10 ng/mL, peptide 50 µM, 24 h
T1 construct: endogenous in cells
T1 sequence (Q96RU7 1-358): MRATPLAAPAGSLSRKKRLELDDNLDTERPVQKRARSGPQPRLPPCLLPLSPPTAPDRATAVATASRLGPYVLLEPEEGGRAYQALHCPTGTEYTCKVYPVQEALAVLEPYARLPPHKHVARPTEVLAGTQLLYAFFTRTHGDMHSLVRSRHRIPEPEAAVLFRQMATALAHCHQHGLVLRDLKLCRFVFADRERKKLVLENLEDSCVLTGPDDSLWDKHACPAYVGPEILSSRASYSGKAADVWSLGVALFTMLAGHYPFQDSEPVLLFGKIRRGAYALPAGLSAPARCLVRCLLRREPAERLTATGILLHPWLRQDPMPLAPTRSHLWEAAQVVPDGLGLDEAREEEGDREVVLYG
Description: The MRC‐5 cells were seeded on the CLSM dish at a density of 6 × 10^4 cells. After adherence, the solution containing TGF‐β1 (10 ng mL^−1), saline plus TGF‐β1 (10 ng mL^−1), A2 (50 µM) plus TGF‐β1 (10 ng mL^−1), Ac‐GFFY‐A2 (50 µM) TGF‐β1 (10 ng mL^−1), was added to incubate cells for 24 h, respectively. Then, the medium was removed and the cells were washed with cold PBS three times. The cells were fixed with 4% of Paraformaldehyde for 10 min at room temperature. Then, the solution was sucked away, and washed by cold PBS three times for a min each time. 0.1% Triton X‐100 solution was used to disrupt the cell membrane structure. […]
Total proteins were exacted from cells or tissues with RIPA lysis buffer (Beyotime Biotecnology). The protein concentration was measured using BCA Protein Assay Kit (Thermo Scientific). […] The protein transferred PVDF membranes were incubated with following primary antibodies at 4°C overnight: Then the membranes were incubated with horseradish peroxidase (HRP)-conjugated secondary antibodies at room temperature for 1 h, and protein signals were detected using an enhanced chemiluminescence kit (Pierce). […] The co -precipitates were resolved using SDS–PAGE and detected with immunoblotting. […]
Hydroxyproline content of right lung of each mouse was measured using a conventional hydroxyproline method as previously described.

Chain of bovine serum albumin (BSA) (P02769 25-607): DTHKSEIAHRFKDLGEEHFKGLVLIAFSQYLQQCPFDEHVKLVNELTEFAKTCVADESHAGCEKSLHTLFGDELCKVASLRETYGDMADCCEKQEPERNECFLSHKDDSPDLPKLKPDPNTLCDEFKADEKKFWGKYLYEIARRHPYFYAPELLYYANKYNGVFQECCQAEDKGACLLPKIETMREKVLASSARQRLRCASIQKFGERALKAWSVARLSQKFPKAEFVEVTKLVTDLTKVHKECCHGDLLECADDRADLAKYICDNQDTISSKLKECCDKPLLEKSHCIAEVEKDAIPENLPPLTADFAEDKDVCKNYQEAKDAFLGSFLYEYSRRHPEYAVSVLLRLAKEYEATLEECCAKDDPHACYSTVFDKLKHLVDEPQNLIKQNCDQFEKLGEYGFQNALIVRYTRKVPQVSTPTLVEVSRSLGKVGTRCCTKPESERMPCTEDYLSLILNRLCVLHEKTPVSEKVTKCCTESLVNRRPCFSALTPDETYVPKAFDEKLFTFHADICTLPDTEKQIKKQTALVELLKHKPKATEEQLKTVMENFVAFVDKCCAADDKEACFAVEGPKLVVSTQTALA

Row | Substance | binding with BSA [1] | disruption of TRB3/p62 PPIs (co-IP, co-localization) (TRB3/p62 PPIs)
1 | Ac-GFFYGGWLTRLLQTK-OH [Ac-GFFY-A2] | no binding | successfully inhibited the TRB3/p62 PPIs
2 | GGWLTRLLQTK-OH [A2, reference compound] | no binding | minimal capacity to disrupt the TRB3/p62 PPIs
